Results published in PMC7374170, “TRIB3-EGFR interaction promotes lung cancer progression and defines a therapeutic target” (Nature Communications, 2020).

Assays:
[1] = test system: cell surface EGFR in A549 cells; assay: Cell surface EGFR by flow cytometry, A549; assay type: cell-based, human
Description: Fig. 2 TRIB3 promotes EGFR recycling to enhance its stability and signaling activity. a Control or TRIB3-silenced A549 cells were treated with cycloheximide (CHX) (10 µg ml^−1) at indicated intervals and protein stability of EGFR was analyzed by IB. Data are means ± SEM of four independent assays. b A549 cells stably expressed control-shRNA or TRIB3-shRNA plasmid were stimulated with or without EGF (100 ng ml^−1) for 1 h. Indicated proteins were analyzed by IB analysis. Data represent means ± SEM of three independent assays. c Confocal microscopy images show the distribution of EGFR and early endosome antigen 1 (EEA-1) in control or TRIB3-silenced A549 cells before and after 0.5 or 1 h of EGF (100 ng ml^−1) stimulation. Quantification of EGFR and EEA-1 colocalization was shown as Pearson’s coefficient. Data are means ± SEM of three independent assays. d Quantitative analyses of cell surface EGFR in A549 cells stably expressed control-shRNA or TRIB3-shRNA1. Cells were preincubated with DMSO or 10 μM monensin for 4 h, and then treated with or without EGF (100 ng ml^−1) for another 1 h. The Mean Fluorescence Intensity (MFI) of EGFR on cell surface was detected by flow cytometry analysis. Top: representative flow cytometry data. Bottom: the data were normalized to A549/control-shRNA cells without EGF stimulation, which was considered as 100% MFI signal. Data are means ± SEM of three independent assays. e EGFR recycling was detected in A549 cells stably expressed control-shRNA or TRIB3-shRNA1 plasmid. Data are means ± SEM of three independent assays. f Colocalization analysis of EGFR with Rab11 and LAMP-1 before or after 30 min EGF treatment in control and TRIB3-silenced A549 cells. Quantification of EGFR/Rab11 or EGFR/LAMP-1 colocalization was shown as Pearson’s coefficient. Data represent means ± SEM of three independent assays. Statistical significance between two groups was determined with two-tailed Student’s t test. Statistical significance among groups was determined by one-way ANOVA test. Source data are provided as a Source Data file. […]
Live cells were stained with Alexa-Fluro 488 anti-EGFR antibody (Santa Cruz, R-1, #sc-101
AF488, 1:100). Analysis was performed using a PARTEC EPICSXL (Germany) and data was
analyzed using FCS Express 6. […]

[2] = test system: A549 cells; assay: A549 subcutaneous xenograft (tumor growth, tumor weight, liver metastasis); assay type: in vivo, BALB/c nude mice; conditions: dose not given
Text: Fig. 7 Targeting EGFR stability inhibits lung cancer initiation and progression. a A549 tumor growth curves under different treatment. b Quantitative analysis of metastatic nodule numbers from mice as described in a. c NCI-H1975 tumor growth curves under different treatment. d Quantitative analysis of metastatic nodule numbers from mice as described in c. Data in a–d are presented as means ± SEM, n = 8. e The EGFR–TRIB3 or EGFR–PKCα interaction in xenograft tumors from indicated mice were detected with CO-IP assays. […] Statistical difference was determined by two-sided log-rank test, n = 14. i Survival curves for mice orthotopically lung implanted with NCI-H1975 cells under indicated treatment. […] Data are means ± SEM of three independent assays. Statistical significance between two groups was determined with two-tailed Student’s t test. Statistical significance among groups was determined by one-way ANOVA test. Source data are provided as a Source Data file. […]
a, Quantified tumor weight from mice subcutaneously inoculated with A549 cells under indicated treatment after tumor inoculation. Data are means ± SEM, n = 8. b, Representative graphs of liver and immunohistochemical staining of the liver sections with anti-hMitochondria […]
IB. Data are means ± SEM of 3 independent assays. Data in d-h are representatives of 3 independent assays. Statistical significance between two groups was determined by two-tailed Student’s t-test; Statistical significance among groups was determined by one-way ANOVA test. Source data are provided as a Source Data ﬁle.
For the subcutaneous tumor model, A549 (1.0×10 5), NCI-H1975 (3.0×105) or patient-derived NSCLC cancer cells (4.0×105) were injected subcutaneously into the right flank of each mouse to establish the NSCLC xenograft model. When average tumor volume reached about 100 mm3, mice were randomized into various groups for different sets of experiments. Tumor growth was monitored twice weekly with a caliper. Tumor volume (TV) was calculated using the formula: […]

[3] = test system: NCI-H1975 cells; assay: NCI-H1975 subcutaneous xenograft (tumor growth, tumor weight, metastasis); assay type: in vivo, BALB/c nude mice; conditions: dose not given
[4] = test system: NCI-H1975 cells; assay: Immunoblot of EGFR, HER2 and receptor tyrosine kinases, NCI-H1975 cells; assay type: cell-based, human
Description: Data are means ± SEM, n = 8. d, EGFR and its signaling proteins in xenograft tumors from NCI-H1975 inoculated mice were detected by IB. e, Stem cell markers in xenograft tumors from NCI-H1975 inoculated mice mice were detected by IB. f, Expressions of TRIB3 and EGFR were detected by IB in tumor samples from PDX mice. g, NCI-H1975 cells were treated with 5 µM of the indicated peptides or 0.5 µM AZD9291for 24 hr. The expression of indicated proteins was detected with IB. h, NCI-H1975 cells were treated with 5 µM of the indicated peptides for 24 hr. The expression of several receptor tyrosine kinases was detected with IB. i, NCI-H1975 cells were pretreated with 5 µM of the indicated peptides for 12 hr. The cells were then incubated with CHX (10 µg ml-1) for indicated times. The indicated proteins were detected by IB. Data are means ± SEM of 3 independent assays. Data in d-h are representatives of 3 independent assays. Statistical significance between two groups was determined by two-tailed Student’s t-test; Statistical significance among groups was determined by one-way ANOVA test. Source data are provided as a Source Data ﬁle.
Immunoblotting, Immunostaining and Immunohistochemistry
Proteins were extracted from cells and tissues using a RIPA lysis buffer (Applygen
Technologies Inc. Beijing, China). Equal protein amounts were loaded for SDS-PAGE,
followed by transfer to polyvinylidene difluoride membranes, and subjected to immunoblot
analysis. Signals were detected by Tanon 5200 chemiluminescent imaging system (Tanon,
Shanghai, China). The western blots were scanning densitometry using Gel Pro Analyzer 3.2
and calculated relative to GAPDH. If not specifically indicated, the data was presented as means
± SEMs of 3 independent biological experiments.

[5] = test system: EGFR signaling proteins in xenograft tumors; assay: Immunoblot / CO-IP of xenograft tumor tissue; assay type: in vivo; conditions: NCI-H1975 inoculated mice, long-term treatment
Description: Data in a–d are presented as means ± SEM, n = 8. e The EGFR–TRIB3 or EGFR–PKCα interaction in xenograft tumors from indicated mice were detected with CO-IP assays. […] Data are means ± SEM of three independent assays. Statistical significance between two groups was determined with two-tailed Student’s t test. Statistical significance among groups was determined by one-way ANOVA test.
Data are means ± SEM, n = 8. d, EGFR and its signaling proteins in xenograft tumors from NCI-H1975 inoculated mice were detected by IB. e, Stem cell markers in xenograft tumors from NCI-H1975 inoculated mice mice were detected by IB. f, Expressions of TRIB3 and EGFR were detected by IB in tumor samples from PDX mice. g, NCI-H1975 cells were treated with 5 µM of the indicated peptides or 0.5 µM AZD9291for 24 hr. The expression of indicated proteins was detected with IB. h, NCI-H1975 cells were treated with 5 µM of the indicated peptides for 24 hr. The expression of several receptor tyrosine kinases was detected with IB. i, NCI-H1975 cells were pretreated with 5 µM of the indicated peptides for 12 hr. […] The indicated proteins were detected by IB. […] Statistical significance between two groups was determined by two-tailed Student’s t-test; Statistical significance among groups was determined by one-way ANOVA test. […]
analysis. Signals were detected by Tanon 5200 chemiluminescent imaging system (Tanon, […]

[6] = test system: proteinase K; assay: Metabolic stability of peptide: proteinase K resistance; assay type: in vitro ADME; conditions: panel Fig.S6e
Description: Metabolic stability of peptide
The sample solution consisted of 15 µl peptide solution (1 mM ) and 585 µl Tris-HCl (pH = 7.4) buffer. Pepsin solution (4,500 U ml-1, 8 µl) or proteinase K solution (4 ng ml-1, 8 µl) was added to the sample solution and incubated at 25℃ for indicated times. Peptide concentrations were […]
detected by Exactive™ Plus Orbitrap (Thermo Fisher Scientific, USA). […]

[7] = H1975 cells, treatment for 12 hr

## EGF: epidermal growth factor used as stimulus, 100 ng ml−1
[1]; A549/Control-shRNA, DMSO or 10 μM monensin 4 h, then EGF 100 ng ml−1 1 h, flow cytometry, A549/control-shRNA without EGF = 100%, replicate 1
  Cell Surface EGFR(%MFI): 80.5481 %MFI
[1]; A549/Control-shRNA, same treatment, replicate 2
  Cell Surface EGFR(%MFI): 86.3646 %MFI
[1]; A549/Control-shRNA, same treatment, replicate 3
  Cell Surface EGFR(%MFI): 89 %MFI
[1]; A549/TRIB3-shRNA, DMSO or 10 μM monensin 4 h, then EGF 100 ng ml−1 1 h, flow cytometry, A549/control-shRNA without EGF = 100%, replicate 1
  Cell Surface EGFR(%MFI): 27.82 %MFI
[1]; A549/TRIB3-shRNA, same treatment, replicate 2
  Cell Surface EGFR(%MFI): 26.66 %MFI
[1]; A549/TRIB3-shRNA, same treatment, replicate 3
  Cell Surface EGFR(%MFI): 25.66 %MFI

## COc1cc2ncnc(Nc3ccc(F)c(Cl)c3)c2cc1OCCCN1CCOCC1 [gefitinib]
[2]; animal 1
  Tumor Weight: 0.95 g
[2]; animal 2
  Tumor Weight: 0.28 g
[2]; animal 3
  Tumor Weight: 0.5 g
[2]; animal 4
  Tumor Weight: 0.76 g
[2]; animal 5
  Tumor Weight: 0.71 g
[2]; animal 6
  Tumor Weight: 0.63 g
[2]; animal 7
  Tumor Weight: 0.92 g
[2]; animal 8
  Tumor Weight: 0.87 g
[3]; animal 1
  Tumor Weight: 0.19 g
[3]; animal 2
  Tumor Weight: 0.56 g
[3]; animal 3
  Tumor Weight: 0.23 g
[3]; animal 4
  Tumor Weight: 0.63 g
[3]; animal 5
  Tumor Weight: 0.13 g
[3]; animal 6
  Tumor Weight: 0.48 g
[3]; animal 7
  Tumor Weight: 0.33 g
[3]; animal 8
  Tumor Weight: 0.37 g

## C=CC(=O)Nc1cc(Nc2nccc(-c3cn(C)c4ccccc34)n2)c(OC)cc1N(C)CCN(C)C [AZD9291]
[4]; [7]
  expression of pEGFR T654, PKCα, TRIB3 and EGFR: had no effect
  pEGFR Y1068: markedly reduced
[4]; NCI-H1975 cells, 5 µM peptide or 0.5 µM AZD9291, 24 hr
  phosphorylation and expression of HER2: suppressive effect on HER2 phosphorylation
[3]; animal 1
  Tumor Weight: 0.09 g
[3]; animal 2
  Tumor Weight: 0.11 g
[3]; animal 3
  Tumor Weight: 0.04 g
[3]; animal 4
  Tumor Weight: 0.05 g
[3]; animal 5
  Tumor Weight: 0.07 g
[3]; animal 6
  Tumor Weight: 0.08 g
[3]; animal 7
  Tumor Weight: 0.02 g
[3]; animal 8
  Tumor Weight: 0.08 g
[5]
  expression / phosphorylation of STAT3, STAT5 (and ERK1/2) in xenograft tumor tissue: upregulated the expression and phosphorylation of STAT3, STAT5, and ERK1/2
  expression of EGFR and TRIB3 in xenograft tumor tissue: reduced TRIB3 and EGFR expression

## CC[C@H](C)[C@H](NC(=O)[C@H](CCCNC(=N)N)NC(=O)[C@H](CC(C)C)NC(=O)[C@H](CC(C)C)NC(=O)[C@H](C)NC(=O)[C@H](CCC(N)=O)NC(=O)[C@@H](N)CC(N)=O)C(=O)N[C@@H](CC(C)C)C(=O)N[C@@H](CCCNC(=N)N)C(=O)N[C@@H](CCC(=O)O)C(=O)N[C@H](C(=O)N[C@@H](CCC(=O)O)C(=O)N[C@@H](Cc1ccccc1)C(=O)N[C@@H](CCCCN)C(=O)N[C@@H](CCCCN)C(=O)O)[C@@H](C)O [JGZ]
[6]; time 45 min, replicate 1
  Fraction Intact (%): 15.4158%
[6]; time 45 min, replicate 2
  Fraction Intact (%): 19.3884%
[6]; time 45 min, replicate 3
  Fraction Intact (%): 17.4109%
[6]; time 90 min, replicate 1
  Fraction Intact (%): 4.517%
[6]; time 90 min, replicate 2
  Fraction Intact (%): 5.842%
[6]; time 90 min, replicate 3
  Fraction Intact (%): 5.149%
[6]; time 135 min, replicate 1
  Fraction Intact (%): 1.978%
[6]; time 135 min, replicate 2
  Fraction Intact (%): 2.87%
[6]; time 135 min, replicate 3
  Fraction Intact (%): 2.235%
[6]; time 180 min, replicate 1
  Fraction Intact (%): 0.9859%
[6]; time 180 min, replicate 2
  Fraction Intact (%): 1.636%
[6]; time 180 min, replicate 3
  Fraction Intact (%): 1.16%
[6]; time 225 min, replicate 1
  Fraction Intact (%): 0.5923%
[6]; time 225 min, replicate 2
  Fraction Intact (%): 0.9865%
[6]; time 225 min, replicate 3
  Fraction Intact (%): 0.582%
[6]; time 270 min, replicate 1
  Fraction Intact (%): 0.003342%
[6]; time 270 min, replicate 2
  Fraction Intact (%): 0.3276%
[6]; time 270 min, replicate 3
  Fraction Intact (%): 0.1279%
[6]; time 360 min, replicate 1
  Fraction Intact (%): 0%
[6]; time 360 min, replicate 2
  Fraction Intact (%): 0.07064%
[6]; time 360 min, replicate 3
  Fraction Intact (%): 0.09951%
[6]; time 450 min, replicate 1
  Fraction Intact (%): 0%
[6]; time 450 min, replicate 2
  Fraction Intact (%): 0.04231%
[6]; time 450 min, replicate 3
  Fraction Intact (%): 0.01388%
[6]; time 540 min, replicate 1
  Fraction Intact (%): 0%
[6]; time 540 min, replicate 2
  Fraction Intact (%): 0.01049%
[6]; time 540 min, replicate 3
  Fraction Intact (%): 0.003119%
